Test results reported in PubChem BioAssay AID504931 (NMMLSC, 2011).
Activity calls are given as the source filed them.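 The calls were made as follows: active = compounds with a reliable fitted curve whose half-effect concentration is below 50 µM; inactive = the rest.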

How the values were obtained:
[1] = system: S. cerevisiae aged cells, superoxide DHE fluorescence, 7 d; assay: S. cerevisiae superoxide reduction in aged cells – powder samples, confirmation, dose response (AID 504931)
[2] = as above; conditions: S. cerevisiae aged cells, superoxide DHE fluorescence, 7 d; at 100 µM (top of the series)

SMILES	EC50 [1] [nM]	percent response, lower = inhibition [2]
COc1ccc2c(c1)c1nnc(SC)nc1n2C	1570	
O=C(/C=C/c1cccs1)NC(=S)NNC(=O)Cc1cccs1		66.6% (inactive)
Cn1c(O)c(C(=Nc2ccc(F)cc2)c2ccccc2Cl)c(=O)n(C)c1=O		98.6% (inactive)
O=C(c1ccc2nccnc2c1)N1CCCCC1		105% (inactive)
c1ccc2[nH]c3cc4ncnc4cc3nc2c1	1110	
N#CCc1nn(-c2ccccc2)c2ncnc(N)c12	800	
C=CCOn1c(=O)c(-c2cccs2)[n+]([O-])c2ccccc21		112% (inactive)
CC(C)OC(=O)c1ccc2nc3ccccc3nc2c1	10900	
COc1cccc2nc3cc(C)c(C)cc3nc12	900	
COc1ccc2cc(C3CC(c4ccco4)=NN3S(=O)(=O)c3ccccc3)c(Cl)nc2c1 (stereo not drawn)		97.3% (inactive)
O=C(c1cccc2nccnc12)N1CCOc2ccccc21		96.8% (inactive)
O=C(c1cccc2nccnc12)N1CCN(c2ccccc2F)CC1		101% (inactive)
Nc1ccc2nccnc2c1		96.2% (inactive)
O=C(Nc1cccc2nccnc12)c1ccccc1		80.3% (inactive)
O=C(c1ccc2nccnc2c1)N1CCN(c2ccccc2)CC1		89.9% (inactive)
CCCCCNC(=O)C(=O)C1C(=O)Nc2ccccc21 (stereo not drawn)	330	
Cc1cc2nc3ccc(N(C)C)cc3nc2cc1N		89.3% (inactive)
[O-][n+]1c2ccccc2[n+]([O-])c2cc(O)ccc21		126% (inactive)
C[n+]1c2ccccc2nc2ccc(NCCO)cc21		62.9% (inactive)
O=C(/C=C/c1ccccc1)NC(=S)NNC(=O)Cc1cccs1		74.9% (inactive)
CC(C)(C)NC(=O)Nc1ccc2nccnc2c1		101% (inactive)
C[C@@]12C(=O)OC(=O)[C@]1(C)C1CCC2O1		351% (inactive)
OCC[n+]1c2ccccc2nc2ccc(N3CCOCC3)cc21	10700	
O=C(O)c1cnc2ccccc2n1		75.7% (inactive)
CN(C)CCNc1ncnc2c1cnn2-c1ccc(Cl)cc1		92% (inactive)

SMILES	EC50 [1] [nM]	percent response, lower = inhibition [2]
C=CCSc1ccc(-c2ccc([N+](=O)[O-])cc2)o1		54.8% (inactive)
O=C1c2c(O)ccc(O)c2C(=O)c2c(NCCNCCO)ccc(NCCNCCO)c21	3410	
Cn1c(=O)[nH]c2nncnc2c1=O		111% (inactive)
CCN(CC)C(=O)c1ccc2nc3ccccc3nc2c1	800	
Nc1cc2nc3ccccc3nc2cc1N	4500	
O=C(O)c1ccc2nccnc2c1		85.8% (inactive)
CN(C)C(=O)c1ccc2nccnc2c1		181% (inactive)
O=C(OCc1c(F)cccc1Cl)c1cnc2ccccc2n1		86.9% (inactive)
O=C(Nc1ccc2nccnc2c1)N1CCN(c2ccccc2)CC1		91.3% (inactive)
CCN(CC)c1ccc2nc3ccc(N)cc3[n+](-c3ccccc3)c2c1	26400	
CC(C)(C)Nc1ncnc2c1cnn2-c1ccccc1		94.4% (inactive)
Cc1ccccc1NC(=O)c1cccc2nc3ccccc3nc12	5450	
O=c1[nH]c(O)c(C=Nc2ccc(F)c(Cl)c2)c(=O)[nH]1		106% (inactive)
CC(=O)Nc1ccc2nc3ccccc3nc2c1	330	
c1ccc2nc3ccccc3nc2c1		119% (inactive)
O=C(CN1CCN(c2ccccn2)CC1)Nc1ccccc1F		98.8% (inactive)
COc1ccc2nc3ccccc3nc2c1		108% (inactive)
COc1ccc2nc3ccccc3[n+]([O-])c2c1		122% (inactive)
O=C(O)c1cccc2nccnc12		93.9% (inactive)
CCC(=Nc1ccccc1O)C1=C(O)CC(c2ccccc2)CC1=O (stereo not drawn)		62.2% (inactive)
Cc1cc(C)c2[nH]c3nc(SCC(=O)O)nnc3c2c1		92.4% (inactive)
Cc1ccc(-c2nn(C(C)(C)C)c3ncnc(N)c23)cc1	2250	
O=C(c1cccc2nc3ccccc3nc12)N1CCOCC1	2330	
C#CCSc1ccc(-c2ccc([N+](=O)[O-])cc2)o1		58% (inactive)
CNc1ccc2nc3ccccc3[n+](C)c2c1	6010	

SMILES	EC50 [1] [nM]	percent response, lower = inhibition [2]
Cc1cc(C)cc(NC(=O)CN2CCN(c3ccccn3)CC2)c1		99.1% (inactive)
O=C(NCc1ccccc1)c1ccc2nccnc2c1		178% (inactive)
CC(C)OC(=O)CSc1nnc(-c2ccc(Cl)cc2Cl)o1		97.2% (inactive)
CCN(CC)C(=O)CSc1nnc(-c2cccc(OC)c2)o1		104% (inactive)
FC(F)(F)c1nc2cc3nc4ccccc4[nH]c3cc2n1	510	
O=C(Nc1ccc2nccnc2c1)NC1CCCCC1		96% (inactive)
CSc1nnc(-c2ccc([N+](=O)[O-])cc2)o1		74% (inactive)
O=C(Nc1cccc(Cl)c1)Nc1ccc2nccnc2c1		87.5% (inactive)
CCc1nc(NC(C)(C)C)c2cnn(-c3ccccc3)c2n1		117% (inactive)
Oc1cccc2nc3ccccc3nc12		194% (inactive)
O=C(Nc1ccccc1)c1ccc2nccnc2c1		96.8% (inactive)
CC(C)CSc1nnc2c3ccccc3n(C)c2n1		110% (inactive)
CCn1c2ccccc2c2n[nH]c(=S)nc21		99.9% (inactive)
O=C(Nc1ccc2nc3ccccc3nc2c1)c1ccc(Br)cc1		88% (inactive)
O=C(Nc1ccc2nccnc2c1)c1cccc2nccnc12		80.9% (inactive)
CN1CCN(C(=O)c2ccc3nccnc3c2)CC1		105% (inactive)
COc1ccc2nc3ccccc3nc2c1NC(=O)c1ccccc1Cl	1110	
CC(C)(C)n1nc(-c2ccc(Cl)cc2)c2c(N)ncnc21	7980	
CCN(CC)C(=O)c1cccc2nc3ccccc3nc12	2800	
O=C(Nc1ccc2nccnc2c1)N1CCOCC1		96.4% (inactive)
N#CC(c1nc2ccccc2nc1N1CCCC1)S(=O)(=O)c1ccccc1 (stereo not drawn)		89.3% (inactive)
CC(C)(C)n1nc(-c2ccc(F)cc2)c2c(N)ncnc21	17200	
COc1ccc2nc3ccccc3nc2c1N	2320	
